From US8222416B2, “Azaindole glucokinase activators” (Hoffmann-La Roche Inc., priority 2009, dated 2012) come the findings set out here.

In this test the target is T1, Recombinant human liver GK1 (GST-GK) (Homo sapiens, UniProt P35557).
T1 construct: made in house; host or cells: E. coli
T1 sequence (P35557 1-466 isoform P35557-2): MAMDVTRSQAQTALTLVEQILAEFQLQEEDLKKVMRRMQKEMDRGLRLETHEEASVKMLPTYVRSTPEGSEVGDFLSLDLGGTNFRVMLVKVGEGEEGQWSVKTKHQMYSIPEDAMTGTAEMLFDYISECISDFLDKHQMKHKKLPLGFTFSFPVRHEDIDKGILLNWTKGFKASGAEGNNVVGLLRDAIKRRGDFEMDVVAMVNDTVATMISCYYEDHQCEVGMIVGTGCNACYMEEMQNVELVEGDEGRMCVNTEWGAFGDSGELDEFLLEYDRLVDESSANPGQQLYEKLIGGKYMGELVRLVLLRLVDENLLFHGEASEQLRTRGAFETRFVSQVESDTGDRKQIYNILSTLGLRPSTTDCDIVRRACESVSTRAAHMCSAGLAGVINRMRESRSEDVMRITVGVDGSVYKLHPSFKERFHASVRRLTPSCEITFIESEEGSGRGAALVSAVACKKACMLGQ
Briefly: In vitro glucokinase activity assay (G6PDH-coupled, NADH, OD340). Type of test: biochemical. The settings on record: concentration of activator that produced a 50% increase in the activity of GK; 5 mM D-glucose, 30° C. The protocol: Glucokinase In Vitro Assay Protocol: Glucokinase (GK) was assayed by coupling the production of glucose-6-phosphate to the generation of NADH with glucose-6-phosphate dehydrogenase (G6PDH, 0.75-1 kunits/mg; Boehringer Mannheim, Indianapolis, Ind.) from Leuconostoc mesenteroides as the coupling enzyme (Scheme 2).
Recombinant human liver GK1 was expressed in E. coli as a glutathione S-transferase fusion protein (GST-GK) [Liang et al, 1995] and was purified by chromatography over a glutathione-Sepharose 4B affinity column using the procedure provided by the manufacturer (Amersham Pharmacia Biotech, Piscataway, N.J.).
The assay was conducted at 30° C. in a flat bottom 96-well tissue culture plate from Costar (Cambridge, Mass.) with a final incubation volume of 120 μL. The incubation reaction contained the following: 25 mM Hepes buffer (pH 7.1), 25 mM KCl, 5 mM D-glucose, 1 mM ATP, 1.8 mM NAD, 2 mM MgCl2, 1 μM sorbitol-6-phosphate, 1 mM dithiothreitol, test drug or 10% dimethylsulfoxide, ˜7 units/ml G6PDH, and GK (see below). All organic reagents were >98% pure and were from Boehringer Mannheim with the exceptions of D-glucose and Hepes which were from Sigma Chemical Co, St Louis, Mo. Test compounds were dissolved in dimethylsulfoxide and were added to the incubation reaction minus GST-GK in a volume of 12 μL to yield a final dimethylsulfoxide concentration of 10%. This mix was pre-incubated in the temperature controlled chamber of a SPECTRAmax 250 microplate spectrophotometer (Molecular Devices Corporation, Sunnyvale, Calif.) for 10 minutes to allow temperature equilibrium and then the reaction was started by the addition of 20 μL GST-GK.
After addition of enzyme, the increase in optical density (OD) at 340 nm was monitored spectrophotometrically to determine the rate of change (OD340 per min). The GK activity (OD340/min) in control wells (10% dimethylsulfoxide minus GK activators) was compared with the activity in wells containing test GK activators, and the concentration of activator that produced a 50% increase in the activity of GK, i.e., the SC1.5, was calculated.
As to `CC(O)c1cnc2[nH]c(C(CC3CCCC3)c3ccc(S(C)(=O)=O)cc3)cc2c1` (single isomer, unassigned) [Example 9, 1-{2-[2-Cyclopentyl-1-(4-methanesulfonyl-phenyl)-ethyl]-1H-pyrrolo[2,3-b]pyridin-5-yl}-ethanol], the SC1.5 turned out to be 10.9 µM.

Turning to `COc1cnc2[nH]c([C@H](CC3CCCCC3)c3ccc(S(C)(=O)=O)cc3)cc2c1` (single isomer, unassigned) [Example 10], the SC1.5 came out at 0.218 µM.

For the compound `CN(C)C(=O)COc1cnc2[nH]c([C@H](CC3CCCC3)c3ccc(S(C)(=O)=O)cc3)cc2c1` (single isomer, unassigned) [Example 14], the SC1.5 worked out at 0.742 µM.

For the compound `COc1cnc2[nH]c(C(CC3CCCO3)c3ccc(S(C)(=O)=O)cc3)cc2c1` (single isomer, unassigned) [Example 23, 2-[1-(4-Methanesulfonyl-phenyl)-2-(tetrahydro-furan-2-yl)-ethyl]-5-methoxy-1H-pyrrolo[2,3-b]pyridine], the SC1.5 amounted to 21.9 µM.

For the compound `COc1cnc2[nH]c(C(CC3CCCO3)c3ccc(S(C)(=O)=O)cc3)cc2c1` (single isomer, unassigned) [Example 24, 2-[1-(4-Methanesulfonyl-phenyl)-2-(tetrahydro-furan-2-yl)-ethyl]-5-methoxy-1H-pyrrolo[2,3-b]pyridine], the SC1.5 was determined as 2.0 µM.

As to `COc1cnc2[nH]c(C(CC3CCCO3)c3ccc(S(C)(=O)=O)cc3)cc2c1` (single isomer, unassigned) [Example 25, 2-[1-(4-Methanesulfonyl-phenyl)-2-(tetrahydro-furan-2-yl)-ethyl]-5-methoxy-1H-pyrrolo[2,3-b]pyridine], the SC1.5 was 22.0 µM.

For the compound `CC(C)(CO)Oc1cnc2[nH]c([C@H](CC3CCCC3)c3ccc(S(C)(=O)=O)cc3)cc2c1` (single isomer, unassigned) [Example 29], the SC1.5 is 1.1 µM.

Turning to `CS(=O)(=O)c1ccc(C(O)(CC2CCCC2)c2cc3cc(F)cnc3[nH]2)cc1` (single isomer, unassigned) [Example 49, 2-Cyclopentyl-1-(5-fluoro-1H-pyrrolo[2,3-b]pyridin-2-yl)-1-(4-methanesulfonyl-phenyl)-ethanol], the SC1.5 was determined as 0.354 µM.

Regarding `N#Cc1ccc([C@@H](CC2CCCC2)c2cc3cc(F)cnc3[nH]2)cc1` (single isomer, unassigned) [Example 51], the SC1.5 amounted to 0.343 µM.

With `CS(=O)(=O)c1ccc([C@@H](CC2CCCC2)c2cc3cc(C#N)cnc3[nH]2)cc1` (single isomer, unassigned) [Example 53], the SC1.5 came out at 0.144 µM.

In the case of `COC(=O)c1cnc2[nH]c([C@H](CC3CCCC3)c3ccc(S(C)(=O)=O)cc3)cc2c1` (single isomer, unassigned) [Example 55], the SC1.5 was determined as 0.512 µM.

On to `CS(=O)(=O)c1ccc([C@@H](CC2CCCC2)c2cc3cc(C(=O)O)cnc3[nH]2)cc1` (single isomer, unassigned) [Example 56], for which the SC1.5 amounted to 3.4 µM.

Turning to `CC(C)(O)c1ccc([C@@H](CC2CCCC2)c2cc3cc(C(=O)O)cnc3[nH]2)cc1F` (single isomer, unassigned) [Example 58], the SC1.5 amounted to 9.5 µM.

For `CS(=O)(=O)c1ccc(C(CC2CCC(=O)C2)c2cc3cccnc3[nH]2)cc1` (single isomer, unassigned) [Example 78, 3-[2-(4-Methanesulfonyl-phenyl)-2-(1H-pyrrolo[2,3-b]pyridin-2-yl)-ethyl]-cyclopentanone], the SC1.5 turned out to be 11.9 µM.

With `CS(=O)(=O)c1ccc(C(CC2CCC(=O)C2)c2cc3cccnc3[nH]2)cc1` (single isomer, unassigned) [Example 79, 3-[2-(4-Methanesulfonyl-phenyl)-2-(1H-pyrrolo[2,3-b]pyridin-2-yl)-ethyl]-cyclopentanone], the SC1.5 came to 0.201 µM.

Take `CCC(O)(CC)c1ccc([C@@H](CC2CCCC2)c2cc3cccnc3[nH]2)cc1` (single isomer, unassigned) [Example 84]: the SC1.5 was found to be 5.9 µM.

Consider `CS(=O)(=O)c1ccc(C(O)(CC2CCCC2)c2cc3cccnc3[nH]2)cc1` (single isomer, unassigned) [Example 86, 2-Cyclopentyl-1-(4-methanesulfonyl-phenyl)-1-(1H-pyrrolo[2,3-b]pyridin-2-yl)-ethanol], for which the SC1.5 was found to be 0.857 µM.

As for `CCOC(CC1CCCC1)(c1ccc(S(C)(=O)=O)cc1)c1cc2cccnc2[nH]1` (single isomer, unassigned) [Example 87, 2-[2-Cyclopentyl-1-ethoxy-1-(4-methanesulfonyl-phenyl)-ethyl]-1H-pyrrolo[2,3-b]pyridine], the SC1.5 was determined as 11.0 µM.

Consider `CC(C)(O)c1ccc([C@@H](CC2CCCC2)c2cc3cccnc3[nH]2)cc1F` (single isomer, unassigned) [Example 96], for which the SC1.5 is 0.144 µM.

As for `CC(C)(O)c1ccc([C@@H](CC2CCOCC2)c2cc3cc(F)cnc3[nH]2)cc1F` (single isomer, unassigned) [Example 98], the SC1.5 came to 0.67 µM.

As to `CC(C)C[C@H](c1ccc(S(C)(=O)=O)cc1)c1cc2cc(F)cnc2[nH]1` (single isomer, unassigned) [Example 100], the SC1.5 was 0.201 µM.

As for `CC(C)C[C@H](c1ccc(S(=O)(=O)CCO)cc1)c1cc2cc(F)cnc2[nH]1` (single isomer, unassigned) [Example 102], the SC1.5 was 0.427 µM.

For `CC(C)(O)c1ccc([C@@H](CC2CCCC2)c2cc3cc(F)cnc3[nH]2)cc1F` (single isomer, unassigned) [Example 104], the SC1.5 came to 0.081 µM.

Take `CC(C)C[C@H](c1ccc(C(C)(C)O)c(F)c1)c1cc2cc(F)cnc2[nH]1` (single isomer, unassigned) [Example 106]: the SC1.5 stood at 0.189 µM.

On to `CS(=O)(=O)c1ccc([C@@H](CC2CCCC2)c2cc3cc(C(F)(F)F)cnc3[nH]2)cc1` (single isomer, unassigned) [Example 127], for which the SC1.5 was 0.607 µM.

Take `Cc1cnc2[nH]c([C@H](CC3CCCC3)c3ccc(C(C)(C)O)c(F)c3)cc2c1` (single isomer, unassigned) [Example 129]: the SC1.5 was found to be 2.6 µM.

As for `CC(C)CC(c1ccc(S(C)(=O)=O)cc1)c1cc2cc(C(=O)NC(C)C)cnc2[nH]1` (centres unmarked) [Example 1, 2-[1-(4-Methanesulfonyl-phenyl)-3-methyl-butyl]-1H-pyrrolo[2,3-b]pyridin-5-carboxylic acid isopropylamide], the SC1.5 is 19.0 µM.

With `CNC(=O)c1cnc2[nH]c(C(CC(C)C)c3ccc(S(C)(=O)=O)cc3)cc2c1` (centres unmarked) [Example 2, 2-[1-(4-Methanesulfonyl-phenyl)-3-methyl-butyl]-1H-pyrrolo[2,3-b]pyridin-5-carboxylic acid methylamide], the SC1.5 stood at 11.3 µM.

In the case of `CS(=O)(=O)c1ccc(C(CC2CCCC2)c2cc3cc(C(=O)N4CCOCC4)cnc3[nH]2)cc1` (centres unmarked) [Example 4, {2-[2-Cyclopentyl-1-(4-methanesulfonyl-phenyl)-ethyl]-1H-pyrrolo[2,3-b]pyridin-5-yl}-morpholin-4-yl-methanone], the SC1.5 was found to be 10.5 µM.

Regarding `CNC(=O)c1cnc2[nH]c(C(CC3CCCC3)c3ccc(S(C)(=O)=O)cc3)cc2c1` (centres unmarked) [Example 5, 2-[2-Cyclopentyl-1-(4-methanesulfonyl-phenyl)-ethyl]-1H-pyrrolo[2,3-b]pyridin-5-carboxylic acid methylamide], the SC1.5 is 1.9 µM.

Turning to `CNC(=O)c1cnc2[nH]c([C@H](CC3CCCC3)c3ccc(S(C)(=O)=O)cc3)cc2c1` [Example 6, 2-[2-Cyclopentyl-1(R)-(4-methanesulfonyl-phenyl)-ethyl]-1H-pyrrolo[2,3-b]pyridin-5-carboxylic acid methylamide], the SC1.5 came out at 1.0 µM.

Consider `CS(=O)(=O)c1ccc(C(CC2CCCC2)c2cc3cc(C(O)CO)cnc3[nH]2)cc1` (centres unmarked) [Example 7, 1-{2-[2-Cyclopentyl-1-(4-methanesulfonyl-phenyl)-ethyl]-1H-pyrrolo[2,3-b]pyridin-5-yl}-ethane-1,2-diol], for which the SC1.5 came to 25.6 µM.
